In PubChem BioAssay AID330 (DTP/NCI, 2004):
“And” between values parts separate entries of the source, which are not always exact repeats. Equal entries are not always repeated. Toxic doses and inconclusive results are not listed.

System: P388 leukemia ip, CD2F1 mice, survival T/C
Experiment: NCI In Vivo Anticancer Drug Screen. Data for tumor model P388 Leukemia (intraperitoneal) in CD2F1 (CDF1) mice
Conditions: endpoint: median survival time, higher = longer survival
In short: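 Mice carrying the transplanted tumor received test compound or vehicle. Survival was recorded in each group, and the value is the treated-group measurement divided by that of the vehicle-treated control group.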

[1] = dose: 12.5 mg/kg/injection, schedule: Q01DX009 (ip), vehicle: saline with Tween-80
[2] = dose: 50.0 mg/kg/injection, schedule: Q01DX009 (ip), vehicle: saline with Tween-80
[3] = dose: 100.0 mg/kg/injection, schedule: Q01DX009 (ip), vehicle: saline with Tween-80
[4] = dose: 50.0 mg/kg/injection, schedule: Q01DX005 (ip), vehicle: saline with Tween-80
[5] = dose: 100.0 mg/kg/injection, schedule: Q01DX005 (ip), vehicle: saline with Tween-80
[6] = dose: 200.0 mg/kg/injection, schedule: Q01DX005 (ip), vehicle: saline with Tween-80
[7] = dose: 50.0 mg/kg/injection, schedule: Q01DX009 (ip), vehicle: Klucel (hydroxypropylcellulose) (HPC)
[8] = dose: 100.0 mg/kg/injection, schedule: Q01DX009 (ip), vehicle: Klucel (hydroxypropylcellulose) (HPC)
[9] = dose: 200.0 mg/kg/injection, schedule: Q01DX009 (ip), vehicle: saline with Tween-80
[10] = dose: 6.25 mg/kg/injection, schedule: Q01DX009 (ip), vehicle: saline
[11] = dose: 12.5 mg/kg/injection, schedule: Q01DX009 (ip), vehicle: saline
[12] = dose: 100.0 mg/kg/injection, schedule: Q01DX009 (ip), vehicle: saline
[13] = dose: 200.0 mg/kg/injection, schedule: Q01DX009 (ip), vehicle: saline
[14] = dose: 200.0 mg/kg/injection, schedule: Q01DX009 (ip), vehicle: Klucel (hydroxypropylcellulose) (HPC)
[15] = dose: 400.0 mg/kg/injection, schedule: Q01DX009 (ip), vehicle: saline with Tween-80
[16] = dose: 100.0 mg/kg/injection, schedule: Q01DX001 (ip), vehicle: saline with Tween-80
[17] = dose: 200.0 mg/kg/injection, schedule: Q01DX001 (ip), vehicle: saline with Tween-80
[18] = dose: 50.0 mg/kg/injection, schedule: Q01DX009 (ip), vehicle: saline

CCCC(=O)Oc1ccc[nH]c1=O
T/C (dose: 3.13 mg/kg/injection, schedule: Q01DX009 (ip), vehicle: distilled water + Tween-80): 100 % of control | T/C (dose: 3.13 mg/kg/injection, schedule: Q01DX009 (ip), vehicle: water): 92 % of control | T/C (dose: 6.25 mg/kg/injection, schedule: Q01DX009 (ip), vehicle: distilled water + Tween-80): 107 % of control | T/C (dose: 6.25 mg/kg/injection, schedule: Q01DX009 (ip), vehicle: water): 92 % of control | T/C (dose: 12.5 mg/kg/injection, schedule: Q01DX009 (ip), vehicle: distilled water + Tween-80): 106 % of control | T/C (dose: 12.5 mg/kg/injection, schedule: Q01DX009 (ip), vehicle: water): 92 % of control | T/C (dose: 25.0 mg/kg/injection, schedule: Q01DX009 (ip), vehicle: distilled water + Tween-80): 100 % of control | T/C (dose: 25.0 mg/kg/injection, schedule: Q01DX009 (ip), vehicle: water): 99 % of control and 107 % of control | T/C (dose: 50.0 mg/kg/injection, schedule: Q01DX009 (ip), vehicle: distilled water + Tween-80): 109 % of control | T/C (dose: 50.0 mg/kg/injection, schedule: Q01DX009 (ip), vehicle: water): 114 % of control | T/C (dose: 100.0 mg/kg/injection, schedule: Q01DX009 (ip), vehicle: water): 114 % of control | T/C (dose: 200.0 mg/kg/injection, schedule: Q01DX009 (ip), vehicle: water): 115 % of control

COc1ccc(Nc2c3ccccc3nc3ccccc23)cc1
T/C [1]: 111 % of control | T/C [2]: 151 % of control | T/C [3]: 109 % of control

O=C(Nc1nc2ccc(Cl)cc2[nH]1)c1ccccc1O
T/C [4]: 94 % of control | T/C [5]: 98 % of control | T/C [6]: 101 % of control

CCOC(=O)c1ccc(NC(=O)SC2=NCCS2)cc1
T/C [7]: 101 % of control | T/C [8]: 103 % of control

CSc1cc(SC)c(SC)nn1
T/C [2]: 106 % of control | T/C [3]: 109 % of control | T/C [9]: 98 % of control

O/N=C/C=N/O.O/N=C/C=N/O.[Ni]
T/C (dose: 0.78 mg/kg/injection, schedule: Q01DX009 (ip), vehicle: saline): 100 % of control | T/C (dose: 1.56 mg/kg/injection, schedule: Q01DX009 (ip), vehicle: saline): 98 % of control | T/C (dose: 3.13 mg/kg/injection, schedule: Q01DX009 (ip), vehicle: saline): 91 % of control | T/C [10]: 97 % of control | T/C [11]: 100 % of control

COc1cc(C(=O)Nc2ccc(S(=O)(=O)Nc3nc(C)cc(C)n3)cc2)cc(OC)c1OC
T/C [4]: 98 % of control | T/C [5]: 88 % of control | T/C [6]: 103 % of control

O=[N+]([O-])c1ccc(N/N=C(/C(=N/Nc2ccc([N+](=O)[O-])cc2)c2ccccc2)c2ccccc2)cc1
T/C (dose: 25.0 mg/kg/injection, schedule: Q01DX009 (ip), vehicle: other): 87 % of control | T/C (dose: 50.0 mg/kg/injection, schedule: Q01DX009 (ip), vehicle: other): 89 % of control | T/C (dose: 100.0 mg/kg/injection, schedule: Q01DX009 (ip), vehicle: other): 93 % of control | T/C (dose: 100.0 mg/kg/injection, schedule: Q01DX009 (ip), vehicle: saline sonified): 90 % of control | T/C (dose: 200.0 mg/kg/injection, schedule: Q01DX009 (ip), vehicle: other): 93 % of control | T/C (dose: 200.0 mg/kg/injection, schedule: Q01DX009 (ip), vehicle: saline sonified): 86 % of control | T/C (dose: 400.0 mg/kg/injection, schedule: Q01DX009 (ip), vehicle: other): 93 % of control | T/C (dose: 400.0 mg/kg/injection, schedule: Q01DX009 (ip), vehicle: saline sonified): 90 % of control

CN(C)P(N)(N)=O
T/C [12]: 105 % of control | T/C [13]: 95 % of control | T/C (dose: 400.0 mg/kg/injection, schedule: Q01DX009 (ip), vehicle: saline): 100 % of control

Cc1ccc(S(=O)(=O)NC(=O)NC2=NC(C)(C)N(c3ccc(Cl)c(Cl)c3)C(N)=N2)cc1
T/C (dose: 60.0 mg/kg/injection, schedule: Q01DX005 (ip), vehicle: saline with Tween-80): 105 % of control | T/C (dose: 120.0 mg/kg/injection, schedule: Q01DX005 (ip), vehicle: saline with Tween-80): 108 % of control | T/C (dose: 240.0 mg/kg/injection, schedule: Q01DX005 (ip), vehicle: saline with Tween-80): 114 % of control

COC1/C=C\OC2(C)Oc3c(C)c(O)c4c(O)c(c5c(c4c3C2=O)NC2(CCN(C)CC2)N=5)=NC(=O)/C(C)=C\C=C\C(C)C(O)C(C)C(O)C(C)C(OC(C)=O)C1C (centres undefined)
T/C (dose: 25.0 mg/kg/injection, schedule: Q01DX009 (ip), vehicle: Klucel (hydroxypropylcellulose) (HPC)): 100 % of control | T/C [7]: 100 % of control | T/C [8]: 102 % of control | T/C [14]: 94 % of control

Cc1cc(C)[nH]n1
T/C [3]: 110 % of control | T/C [9]: 105 % of control | T/C [15]: 120 % of control

Clc1ccc(-c2nnc3ncccn23)cc1
T/C [16]: 96 % of control | T/C [17]: 105 % of control

C/C=C(\C)C(=O)OC1CC(C)(O)C(=O)C(OC(=O)/C(C)=C/C)C2(C)CCC(O)(C(C)C)C12 (centres undefined)
T/C [2]: 105 % of control | T/C [3]: 101 % of control | T/C [9]: 100 % of control | T/C [15]: 95 % of control

CCCCCCC(=O)/C=C/c1ccccc1OCOC
T/C [7]: 100 % of control (2×) and 108 % of control | T/C [8]: 99 % of control and 100 % of control and 106 % of control | T/C [14]: 103 % of control and 111 % of control | T/C (dose: 400.0 mg/kg/injection, schedule: Q01DX009 (ip), vehicle: Klucel (hydroxypropylcellulose) (HPC)): 117 % of control

O=C(O)CCCCCCCCCc1ccccc1
T/C [1]: 100 % of control | T/C (dose: 25.0 mg/kg/injection, schedule: Q01DX009 (ip), vehicle: saline with Tween-80): 97 % of control | T/C [2]: 95 % of control | T/C [18]: 97 % of control

CN1C(=O)C2(C)SSC1(C)C(=O)N2C
T/C [10]: 110 % of control | T/C [11]: 108 % of control | T/C (dose: 25.0 mg/kg/injection, schedule: Q01DX009 (ip), vehicle: saline): 107 % of control

Nc1cc(N2C(=O)c3ccccc3C2=O)ccc1Cl
T/C [4]: 109 % of control | T/C [5]: 109 % of control | T/C [6]: 100 % of control

N#CC(c1ccccc1)C(c1ccccc1)c1cccc2ccccc12 (centres undefined)
T/C (dose: 6.25 mg/kg/injection, schedule: Q01DX009 (ip), vehicle: suspension in saline): 98 % of control | T/C (dose: 12.5 mg/kg/injection, schedule: Q01DX009 (ip), vehicle: suspension in saline): 97 % of control | T/C (dose: 25.0 mg/kg/injection, schedule: Q01DX009 (ip), vehicle: suspension in saline): 97 % of control | T/C (dose: 50.0 mg/kg/injection, schedule: Q01DX009 (ip), vehicle: suspension in saline): 97 % of control | T/C (dose: 100.0 mg/kg/injection, schedule: Q04DX002 (ip), vehicle: saline with Tween-80): 104 % of control | T/C (dose: 200.0 mg/kg/injection, schedule: Q04DX002 (ip), vehicle: saline with Tween-80): 101 % of control | T/C (dose: 400.0 mg/kg/injection, schedule: Q04DX002 (ip), vehicle: saline with Tween-80): 107 % of control

CCCC[N+]1([O-])CCOCC1
T/C [18]: 104 % of control | T/C [12]: 100 % of control | T/C [13]: 107 % of control

CC1=C(CC/C(C)=C/CCC2=CCC(C3=CC(=O)OC3O)OC2O)C(C)(C)CCC1 (centres undefined)
T/C (dose: 1.0 mg/kg/injection, schedule: Q01DX009 (ip), vehicle: Klucel (hydroxypropylcellulose) (HPC)): 116 % of control | T/C (dose: 2.0 mg/kg/injection, schedule: Q01DX009 (ip), vehicle: Klucel (hydroxypropylcellulose) (HPC)): 111 % of control | T/C (dose: 4.0 mg/kg/injection, schedule: Q01DX009 (ip), vehicle: Klucel (hydroxypropylcellulose) (HPC)): 117 % of control | T/C (dose: 8.0 mg/kg/injection, schedule: Q01DX009 (ip), vehicle: Klucel (hydroxypropylcellulose) (HPC)): 100 % of control | T/C (dose: 16.0 mg/kg/injection, schedule: Q01DX009 (ip), vehicle: Klucel (hydroxypropylcellulose) (HPC)): 117 % of control

O=C(N/N=C/c1cc(Br)cc(Br)c1O)c1ccccc1
T/C [16]: 96 % of control | T/C [17]: 96 % of control | T/C (dose: 400.0 mg/kg/injection, schedule: Q01DX001 (ip), vehicle: saline with Tween-80): 92 % of control

O=c1[nH]nc(NCCCCO)c2ccccc12
T/C [2]: 95 % of control | T/C [3]: 95 % of control | T/C [9]: 91 % of control

O=c1nc2ccccc2c2n1CCN2
T/C [4]: 105 % of control | T/C [5]: 101 % of control | T/C [6]: 100 % of control

O=C(CCSc1ncnc2nc[nH]c12)c1ccccc1
T/C [18]: 94 % of control | T/C [12]: 92 % of control | T/C [13]: 86 % of control
